Source: publication PMC8666671, “Fine-tuning spermidine binding modes in the putrescine binding protein PotF” (The Journal of Biological Chemistry, 2021)
Positions count from the first letter of the chain named. Values joined by “and” are separate entries in the source; they are usually repeats but may differ in a detail not shown here. Equal entries are not always repeated.

Assays:
Format in all cases: binding
PotF_Abox = molecular target: T1, PotF_Abox (Escherichia coli, UniProt P31133, F276W); assay: ITC, PotF_Abox (F276W); conditions: for n: ITC binding stoichiometry; for n / Kd / ΔG / ΔH / −TΔS: 293 K, PotF_Abox; for Kd: 50 mM Tris pH 8, 300 mM NaCl, biological triplicates
T1 construct: without the N-terminal signal peptide; made in house; host or cells: E. coli BL21 (DE3)
T1 sequence (P31133 27-370 F276W): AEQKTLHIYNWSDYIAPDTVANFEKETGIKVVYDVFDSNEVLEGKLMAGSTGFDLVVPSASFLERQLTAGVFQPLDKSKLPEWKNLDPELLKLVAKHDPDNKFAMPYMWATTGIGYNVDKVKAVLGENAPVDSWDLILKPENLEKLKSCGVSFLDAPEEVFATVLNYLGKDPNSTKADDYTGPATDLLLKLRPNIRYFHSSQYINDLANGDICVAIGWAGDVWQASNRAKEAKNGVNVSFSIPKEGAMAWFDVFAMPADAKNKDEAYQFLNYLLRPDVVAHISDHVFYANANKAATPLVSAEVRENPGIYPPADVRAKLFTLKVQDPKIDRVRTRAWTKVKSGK
Experimental: (§1) Ligands were always freshly prepared in the exact same buffer as was used for the size exclusion run. Samples were degassed, and temperature was equilibrated using a degassing station (TA Instruments). About 400 μl protein sample of different concentrations (Table S5) depending on affinity was transferred into the sample cell of a nanoITC (TA Instruments), and 50 μl of about tenfold concentrated ligand solution was loaded into the injection needle. Multiple injection measurements were carried out at 293 K, 300 rpm stirring rate, and 250 s spacings between each 2 μl injection. The heat quantity past injection was determined by integration of the measured peaks. Every protein–ligand combination was measured as biological triplicate. Subtraction of heat of dilution measurements, peak integration, and one site binding fits were done with NanoAnalyze (TA Instruments). Reported errors are the errors between fits of the measured triplicates.

PotF_Abox_Dist = molecular target: T2, PotF_Abox_Dist (Escherichia coli, UniProt P31133, A182D/F276W/L348Q/S87Y); assay: ITC, PotF_Abox_Dist (S87Y, A182D, L348Q, F276W); conditions: 293 K
T2 construct: without the N-terminal signal peptide; made in house; host or cells: E. coli BL21 (DE3)
T2 sequence (P31133 27-370 S87Y/A182D/F276W/L348Q): T1 sequence (P31133 27-370 F276W) with S61Y, A156D, L322Q
Experimental: as §1

PotF_Abox_Prox = molecular target: T3, PotF_Abox_Prox (Escherichia coli, UniProt P31133, D247S/D39E/F276W/S38T); assay: ITC, PotF_Abox_Prox (S38T, D39E, D247S, F276W); conditions: 293 K, 50 mM Tris pH 8, 300 mM NaCl, biological triplicates
T3 construct: without the N-terminal signal peptide; made in house; host or cells: E. coli BL21 (DE3)
T3 sequence (P31133 27-370 S38T/D39E/D247S/F276W): T1 sequence (P31133 27-370 F276W) with S12T, D13E, D221S
Experimental: as §1

PotF_Abox-A182D = molecular target: T4, PotF_Abox-A182D (Escherichia coli, UniProt P31133, A182D/F276W); assay: ITC, PotF_Abox-A182D (F276W, A182D); conditions: for n: ITC binding stoichiometry; for n / Kd / ΔG / ΔH / −TΔS: 293 K, PotF_Abox-A182D; for Kd / ΔG / ΔH / −TΔS: ITC; for Kd: 50 mM Tris pH 8, 300 mM NaCl, biological triplicates
T4 construct: without the N-terminal signal peptide; made in house; host or cells: E. coli BL21 (DE3)
T4 sequence (P31133 27-370 A182D/F276W): T1 sequence (P31133 27-370 F276W) with A156D
Experimental: as §1

PotF_Dist = molecular target: T5, PotF_Dist (Escherichia coli, UniProt P31133, A182D/L348Q/S87Y); assay: ITC, PotF_Dist (S87Y, A182D, L348Q); conditions: 293 K
T5 construct: without the N-terminal signal peptide; made in house; host or cells: E. coli BL21 (DE3)
T5 sequence (P31133 27-370 S87Y/A182D/L348Q): T1 sequence (P31133 27-370 F276W) with S61Y, A156D, W250F, L322Q
Experimental: as §1

[1] = ITC, PotF_Abox compared with wildtype PotF
[2] = ITC, 50 mM Tris pH 8, 300 mM NaCl, biological triplicates

| Structure (SMILES) | n (PotF_Abox) | Kd (PotF_Abox; ITC) | ΔG (PotF_Abox; ITC) [kcal/mol] | ΔH (PotF_Abox; ITC) [kcal/mol] | −TΔS (PotF_Abox; ITC) [kcal/mol] | KD (PotF_Abox_Prox) | n (PotF_Abox-A182D) | Kd (PotF_Abox-A182D) | ΔG (PotF_Abox-A182D) [kcal/mol] | ΔH (PotF_Abox-A182D) [kcal/mol] | −TΔS (PotF_Abox-A182D) [kcal/mol] | KD (PotF_Dist; [2]) | also measured |
| --- | --- | --- | --- | --- | --- | --- | --- | --- | --- | --- | --- | --- | --- |
| NCCCCN [PUT, putrescine] | 0.90 ± 0.03 | ~0.21 µM and 0.21 µM | -8.97 ± 0.10 | -22.25 ± 0.77 | 13.28 ± 0.75 | no binding | 0.91 ± 0.01 | ~83 µM and 83.2 µM | -5.45 ± 0.02 | -9.79 ± 0.09 | 4.33 ± 0.08 | abolishes association | ΔΔH (PotF_Abox; [1]): +0.77 kcal/mol; KD (PotF_Abox_Dist; [2]): not detectable; decrease of PUT affinity (PotF_Abox-A182D; PotF_Abox-A182D compared with wildtype PotF): around 1200 fold |
| NCCCCNCCCN [SPD, spermidine] | 0.96 ± 0.06 | ~11 µM and 11.1 µM | -6.65 ± 0.04 | -6.25 ± 0.16 | -0.40 ± 0.21 | very low | 0.91 ± 0.02 | ~3.1 µM and 3.13 µM | -7.39 ± 0.11 | -4.37 ± 0.20 | -3.02 ± 0.15 | very low | Δ(−TΔS) (PotF_Abox; [1]): +2.02 kcal/mol; n (PotF_Abox_Dist; ITC binding stoichiometry): 0.94 ± 0.00; ΔG (PotF_Abox_Dist; ITC): -6.85 ± 0.02 kcal/mol; ΔH (PotF_Abox_Dist; ITC): -5.28 ± 0.07 kcal/mol; −TΔS (PotF_Abox_Dist; ITC): -1.57 ± 0.09 kcal/mol; Kd (PotF_Abox_Dist; [2]): ~7.8 µM and 7.8 µM and 7.77 µM; n (PotF_Dist; ITC binding stoichiometry): 0.91 ± 0.02; ΔG (PotF_Dist; ITC): -5.48 ± 0.20 kcal/mol; ΔH (PotF_Dist; ITC): -1.83 ± 0.08 kcal/mol; −TΔS (PotF_Dist; ITC): -3.65 ± 0.28 kcal/mol; Kd (PotF_Dist; [2]): 88.2 ± 33.1 µM |
